Results taken from patent US5039528A, “EAA antagonists as anti-emetic drugs” (priority 1989, dated 1991).
Read-outs that look alike come from different tables or passages of the source.

Assays:
[1] = cited from earlier work; for penetration of blood brain barriers: statement in text; for BBB penetrability: Table 1
humans = conditions: cited from earlier work; for psychotic effects: humans; for serious side effects: interaction with NMDA receptors throughout the brain
NMDA receptors [2] = experiment: Chick retina assay: protection against excitotoxic action of NMDA; format: cell-based
From the text: (§1) Antagonist potencies were established in a chick retina assay which has
(§2) (NMDA, KA and Quis) for excitotoxic properties and EAA antagonists for
(§3) potency in protecting the retina against the excitotoxic action of such
(§4) agonists. The concentration of antagonist required to totally prevent the
(§5) toxic action of an agonist was used to compare antagonists for potency.
(§6) For purposes of illustration, the data were normalized by assigning a
(§7) EAA antagonist properties have been described in each category. Antagonis
(§8) potencies were established in a chick retina assay which has been used by
(§9) Quis) for excitotoxic properties and EAA antagonists for potency in
(§10) protecting the retina against the excitotoxic action of such agonists.
(§11) concentration of antagonist required to totally prevent the toxic action
(§12) of an agonist was used to compare antagonists for potency. For purposes o
(§13) to kynurenic acid vs KA (see table 1) and all other values were adjusted

[3] = tested on: EAA receptors (NMDA, KA, Quis); conditions: cited from earlier work
Quis receptors [4] = experiment: Chick retina assay: protection against excitotoxic action of Quis; format: cell-based; conditions: Table 1, normalized to kynurenic acid vs KA = 1
From the text: as §1, §2, §3, §4, §5, §6, §7, §8, §9, §10, §11, §12, §13

KA receptors [5] = experiment: Chick retina assay: protection against excitotoxic action of KA; format: cell-based; conditions: Table 1, normalized to kynurenic acid vs KA = 1
From the text: as §1, §2, §3, §4, §5, §6, §7, §8, §9, §10, §11, §12, §13

KA receptors [6] = conditions: Table 1, *: not screened in chick retina assay; estimated from other reported electrophysiological data; cited from earlier work
NMDA receptors [7] = conditions: Table 1, *: not screened in chick retina assay; estimated from other reported electrophysiological data; cited from earlier work
Quis receptors [8] = conditions: Table 1, *: not screened in chick retina assay; estimated from other reported electrophysiological data; cited from earlier work
patients = conditions: high blood concentrations, humans; cited from earlier work
[9] = tested on: area postrema-CVO neurons; conditions: cited from earlier work; for emesis at a toxic dose: dogs and monkeys; for neurotoxic effects: subcutaneous, immature animals of various species including monkeys, CVO brain regions
dogs [10] = experiment: Emesis induction by glutamate in dogs; blockage by D-AP5 or Kyn; format: in vivo, dog; conditions: 150 mg/kg IV
dogs [11] = experiment: Emesis induction by KA in dogs; blockage by Kyn; format: in vivo, dog; conditions: in the vicinity of 0.5 mg/kg SC, without Kyn
Method: Kainic acid (KA), an EAA agonist which triggers the KA class of non-NMDA receptors, was administered to dogs at dosages in the vicinity of 0.5 mg/kg SC.

cerebral ischemia = conditions: animal experiments, cerebral ischemia (stroke); cited from earlier work
neurons = conditions: in vivo; cited from earlier work
[12] = Table 2, normalized to kynurenic acid vs KA = 1
[13] = Table 1, normalized to kynurenic acid vs KA = 1

In the case of `CCNC1(c2cccs2)CCCCC1=O` (racemic) [tilletamine], the “penetration of blood brain barriers” value [1] is given as “permeate easily through BBB's”, the psychotic effects (humans) is given as “psychotic effects” and the “EAA antagonist potency vs NMDA” value (NMDA receptors [2]; [12]) is given as 200.

For `O=C(O)c1cc(O)c2ccc(Cl)cc2n1` [7-Cl-kynurenate, 7-chloro-kynurenic acid], the “EAA receptor subtype order of blockade” value [3] is given as “NMDA>KA>Quis”, the BBB penetrability [1] is given as “very low” and the “penetration of blood brain barriers” value [1] is given as “do not penetrate blood-brain barriers”. The “EAA antagonist potency vs Quis” value (Quis receptors [4]) was 3, the “EAA antagonist potency vs NMDA” value (NMDA receptors [2]; [13]) was 10 and the “EAA antagonist potency vs KA” value (KA receptors [5]) was 4.

For `C/C(=C\C(N)C(=O)O)CP(=O)(O)O` (centres unmarked) [CGP 37849], the BBB penetrability [1] is given as “moderate”, the “EAA antagonist potency vs KA” value (KA receptors [6]) is given as 0 and the “EAA antagonist potency vs NMDA” value (NMDA receptors [7]) is given as 200. For the same molecule, the “EAA antagonist potency vs Quis” value (Quis receptors [8]) was 0.

For `O=C(O)[C@@H]1C[C@H](CP(=O)(O)O)CCN1` [CGS 19755], the “EAA antagonist potency vs KA” value (KA receptors [6]) is given as 0, the “EAA antagonist potency vs NMDA” value (NMDA receptors [7]) is given as 200 and the “EAA antagonist potency vs Quis” value (Quis receptors [8]) is given as 0.

In the case of `O=C(O)C1CN(C/C=C/P(=O)(O)O)CCN1` (centres unmarked) [CPP-ene], the BBB penetrability [1] is listed as “moderate”, the “penetration of blood brain barriers” value [1] is listed as “do not readily penetrate blood brain barriers” and the “EAA antagonist potency vs KA” value (KA receptors [6]) is listed as 0. The “EAA antagonist potency vs NMDA” value (NMDA receptors [7]) was 200 and the “EAA antagonist potency vs Quis” value (Quis receptors [8]) was 0.

For `O=C(O)C1CN(CCCP(=O)(O)O)CCN1` (centres unmarked) [CPP], the “EAA antagonist potency vs KA” value (KA receptors [6]) is listed as 0, the “EAA antagonist potency vs NMDA” value (NMDA receptors [7]) is listed as 200 and the “EAA antagonist potency vs Quis” value (Quis receptors [8]) is listed as 0.

With `N[C@H](CCCP(=O)(O)O)C(=O)O` [D-AP5, D-2-amino-5-phosphonopentanoate] the “EAA antagonist potency vs NMDA” value (NMDA receptors [2]; [13]) was 40.

For `N[C@H](CCCCCP(=O)(O)O)C(=O)O` [D-AP7, D-2-amino-7-phosphonoheptanoate], the BBB penetrability [1] is given as “very low”, the “penetration of blood brain barriers” value [1] is given as “do not readily penetrate blood brain barriers” and the “EAA antagonist potency vs NMDA” value (NMDA receptors [2]; [13]) is given as 13.

For `O=c1[nH]c2cc([N+](=O)[O-])c([N+](=O)[O-])cc2[nH]c1=O` [DNQX, 6,7-dinitro-quinoxaline-2,3-dion], the “block of non-NMDA vs NMDA receptors” value [3] is listed as “block non-NMDA receptors substantially more powerfully than NMDA receptors”, the “potency compared with kynurenic or 7-chloro-kynurenic acid” value [3] is listed as “significantly more powerful” and the BBB penetrability [1] is listed as “very low”. The “penetration of blood brain barriers” value [1] was “do not penetrate blood-brain barriers”, the “EAA antagonist potency vs Quis” value (Quis receptors [4]) was 40 and the “EAA antagonist potency vs NMDA” value (NMDA receptors [2]; [13]) was 10. The “EAA antagonist potency vs KA” value (KA receptors [5]) was 20.

For `N[C@@H](CCC(=O)O)C(=O)O` [Glutamate, glutamate], the “penetration of blood brain barriers” value [1] is given as “does not penetrate the BBB”, the emetic properties (patients) is given as “induce vomiting” and the “emesis at a toxic dose” value [9] is given as “first causes the animal to vomit before continued excitatory stimulation destroys the area postrema-CVO neurons”. The neurotoxic effects [9] was “powerful neurotoxic effects” and the “emetic response to glutamate” value (dogs [10]) was “An emetic response was observed in all animals”.

With `C=C(C)[C@H]1CN[C@H](C(=O)O)[C@H]1CC(=O)O` [KA, kainic acid] the “emetic response to KA” value (dogs [11]) was “All of the animals suffered an emetic response”.

In the case of `C[C@]12N[C@H](Cc3ccccc31)c1ccccc12` [MK-801], the neuroprotective effects (cerebral ischemia) is given as “powerful neuroprotective effects”, the psychotic effects (humans) is given as “psychotic effects” and the serious side effects (humans) is given as “psychotic disturbances and pathomorphological changes in cerebrocortical neurons”. The “EAA antagonist potency vs NMDA” value (NMDA receptors [2]; [12]) was 5000.

In the case of `c1ccc(C2(N3CCCCC3)CCCCC2)cc1` [PCP, phencyclidine], the “penetration of blood brain barriers” value [1] is given as “readily penetrate BBB”, the “penetration of blood brain barriers” value ([1]; listed as phencyclidine) is given as “permeate easily through BBB's” and the neuroprotective effects (cerebral ischemia) is given as “powerful neuroprotective effects”. The psychotic effects (humans) was “psychotic effects”, the serious side effects (humans) was “psychotic disturbances and pathomorphological changes in cerebrocortical neurons” and the “EAA antagonist potency vs NMDA” value (NMDA receptors [2]; [12]) was 2000.

In the case of `OC(CN1CCC(Cc2ccc(F)cc2)CC1)c1ccc(Cl)cc1` (centres unmarked) [SL 82,0715], the “EAA antagonist potency vs NMDA” value (NMDA receptors [2]; [13]) is reported as 50.

For `N[C@@H](CC(=O)O)C(=O)O` [aspartate], the emetic properties (patients) is given as “induce vomiting”, the “emesis at a toxic dose” value [9] is given as “first causes the animal to vomit before continued excitatory stimulation destroys the area postrema-CVO neurons” and the neurotoxic effects [9] is given as “powerful neurotoxic effects”.

In the case of `CN1[C@@H]2CC[C@H]1C[C@@H](OC(c1ccccc1)c1ccccc1)C2` [benztropine], the “reduction of the neurotoxicity of NMDA antagonists that penetrate the BBB” value (neurons) is listed as “effective in reducing the neurotoxicity”.
